Patent US20250381168A1, “VLA4 INHIBITORS AND USES THEREOF” (Washington University, priority 2022, published 2025)
Entries after “also recorded” stand apart in the source; their conditions may differ. Read-outs that look alike come from different tables or passages of the source.

What was measured:
VLA-4 (a4b1) = VLA-4 (a4b1) (Homo sapiens (Human), UniProt P05556+P13612); test: sVCAM flow cytometry cell-based assay (inhibition of soluble VCAM-1 binding to G2 ALL cells);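 also: compounds at 0.1 to 1000 nM preincubated 30 min with G2 ALL cells, then VCAM/Fc added for 30 min, bound VCAM-1 detected by PE secondary antibody, percent binding cells by flow cytometry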
integrin a4b7 = integrin a4b7 (Homo sapiens (Human), UniProt P13612+P26010); test: a4b7 solid phase receptor assay (SPRA); conditions: recombinant human a4b7 binding to plate-coated human VCAM1 (TABLE 4)
Protocol: Wells were washed 3 times with TBS+ and blocking buffer (TBS+ with 1% bovine serum albumin), the plate was incubated for 1 hr at 37° C., and then washed 3× with TBS+ buffer. Recombinant human a4b7 (R & D Systems) was diluted to 1 μg/ml in TBS+/0.1% bovine serum albumin. Test compounds were diluted into the integrin solution and added to the washed ligand-coated plate according to a standard template with each sample repeated in triplicate. After incubation for 2 hr at room temperature, the plate was washed 3× with 150 μl of TBS+ buffer. To each well, biotinylated anti-A4 antibody (R & D Systems) at 1 μg/ml in TBS+/0.1% BSA was added and the plate covered and incubated for 1 hr at room temperature. After washing the plate 3× with TBS+ buffer, streptavidin-conjugated horseradish peroxidase (R & D Systems) diluted in TBS+ blocking buffer was added to the wells and the plate incubated for 20 min at room temperature. The plate was washed 3× with TBS+ buffer followed by addition of 50 μl of TMB substrate (Sigma T4444). After incubation for 20 min at room temperature, plates were stopped with TMB stop solution (Sigma S5689) by colorimetric detection at 450 nm wavelength using a Tecan Safire II plate reader.

[1] = system: hematopoietic stem/progenitor cells (HSPCs); test: HSPC mobilization into peripheral blood, colony forming unit (CFU) assay; as to HSPC mobilization, result in words: test concentration or dose not given here; as to No. CFU (×10^3)/mL ± SD, 6 hr: test concentration or dose not given here; conditions: mice; for No. CFU (x10^3)/mL ± SD, 2 hr / No. CFU (x10^3)/mL ± SD, 4 hr / No. CFU (x10^3)/mL ± SD, 6 hr / No. CFU (x10^3)/mL ± SD, 8 hr: single injection; for No. CFU (x10^3)/mL ± SD, 2 hr: 2 hr post dose (TABLE 12); for No. CFU (x10^3)/mL ± SD, 4 hr: 4 hr post dose (TABLE 12); for No. CFU (x10^3)/mL ± SD, 6 hr: 6 hr post dose (TABLE 12); for No. CFU (x10^3)/mL ± SD, 8 hr: 8 hr post dose (TABLE 12)
[2] = as listed in TABLE 12, read-out: sVCAM IC50
[3] = inhibition of sVCAM-1 binding to human G2 ALL cells (TABLE 3), read-out: SVCAM-1, IC50

Chain of VLA-4 (a4b1) (P13612 34-1032): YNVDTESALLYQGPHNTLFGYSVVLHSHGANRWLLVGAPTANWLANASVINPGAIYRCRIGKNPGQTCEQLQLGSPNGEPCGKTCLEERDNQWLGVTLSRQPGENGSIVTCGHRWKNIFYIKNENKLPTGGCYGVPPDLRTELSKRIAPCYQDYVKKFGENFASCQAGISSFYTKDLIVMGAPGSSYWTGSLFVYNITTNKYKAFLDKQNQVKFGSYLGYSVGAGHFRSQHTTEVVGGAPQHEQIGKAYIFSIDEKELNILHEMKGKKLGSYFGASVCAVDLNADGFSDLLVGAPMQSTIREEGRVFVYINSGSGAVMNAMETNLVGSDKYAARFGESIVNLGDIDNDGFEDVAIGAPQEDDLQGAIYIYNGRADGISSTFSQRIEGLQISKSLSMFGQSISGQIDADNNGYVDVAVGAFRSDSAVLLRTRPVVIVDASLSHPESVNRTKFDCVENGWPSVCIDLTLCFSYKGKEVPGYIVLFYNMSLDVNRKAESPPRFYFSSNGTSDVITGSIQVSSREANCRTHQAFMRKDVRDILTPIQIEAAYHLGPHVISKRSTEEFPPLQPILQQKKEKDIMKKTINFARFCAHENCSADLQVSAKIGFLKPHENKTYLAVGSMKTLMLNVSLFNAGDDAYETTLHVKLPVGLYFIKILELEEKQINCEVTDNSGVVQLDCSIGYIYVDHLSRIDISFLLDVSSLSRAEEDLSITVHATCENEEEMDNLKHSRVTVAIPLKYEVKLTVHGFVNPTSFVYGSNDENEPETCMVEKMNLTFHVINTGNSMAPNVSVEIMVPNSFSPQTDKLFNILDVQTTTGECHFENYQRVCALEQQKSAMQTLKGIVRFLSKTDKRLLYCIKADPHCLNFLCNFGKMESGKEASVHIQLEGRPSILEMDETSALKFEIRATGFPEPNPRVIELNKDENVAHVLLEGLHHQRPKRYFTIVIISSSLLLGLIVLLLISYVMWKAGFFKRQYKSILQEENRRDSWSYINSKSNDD
Chain of VLA-4 (a4b1) (P05556 21-798): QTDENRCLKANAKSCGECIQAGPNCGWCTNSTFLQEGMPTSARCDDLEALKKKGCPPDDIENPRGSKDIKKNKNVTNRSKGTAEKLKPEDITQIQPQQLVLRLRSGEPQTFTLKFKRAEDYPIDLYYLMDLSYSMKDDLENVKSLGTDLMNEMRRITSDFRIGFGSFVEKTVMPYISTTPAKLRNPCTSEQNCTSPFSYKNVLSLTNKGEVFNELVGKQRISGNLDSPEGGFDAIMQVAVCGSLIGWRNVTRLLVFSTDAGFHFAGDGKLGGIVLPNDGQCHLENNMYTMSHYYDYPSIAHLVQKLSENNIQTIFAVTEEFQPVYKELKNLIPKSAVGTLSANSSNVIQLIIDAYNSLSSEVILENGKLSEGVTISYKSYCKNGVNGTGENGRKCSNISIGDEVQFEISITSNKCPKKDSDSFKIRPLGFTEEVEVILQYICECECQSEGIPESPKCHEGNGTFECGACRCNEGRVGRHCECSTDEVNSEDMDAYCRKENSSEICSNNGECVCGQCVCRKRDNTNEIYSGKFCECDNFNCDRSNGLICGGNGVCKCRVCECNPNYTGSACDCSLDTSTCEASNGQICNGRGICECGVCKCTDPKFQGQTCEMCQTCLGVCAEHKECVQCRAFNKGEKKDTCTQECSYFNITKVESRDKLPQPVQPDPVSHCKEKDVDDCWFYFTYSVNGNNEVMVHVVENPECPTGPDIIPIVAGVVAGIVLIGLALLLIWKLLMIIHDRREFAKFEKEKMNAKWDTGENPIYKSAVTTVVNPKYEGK
Chain of integrin a4b7 (P13612 34-970): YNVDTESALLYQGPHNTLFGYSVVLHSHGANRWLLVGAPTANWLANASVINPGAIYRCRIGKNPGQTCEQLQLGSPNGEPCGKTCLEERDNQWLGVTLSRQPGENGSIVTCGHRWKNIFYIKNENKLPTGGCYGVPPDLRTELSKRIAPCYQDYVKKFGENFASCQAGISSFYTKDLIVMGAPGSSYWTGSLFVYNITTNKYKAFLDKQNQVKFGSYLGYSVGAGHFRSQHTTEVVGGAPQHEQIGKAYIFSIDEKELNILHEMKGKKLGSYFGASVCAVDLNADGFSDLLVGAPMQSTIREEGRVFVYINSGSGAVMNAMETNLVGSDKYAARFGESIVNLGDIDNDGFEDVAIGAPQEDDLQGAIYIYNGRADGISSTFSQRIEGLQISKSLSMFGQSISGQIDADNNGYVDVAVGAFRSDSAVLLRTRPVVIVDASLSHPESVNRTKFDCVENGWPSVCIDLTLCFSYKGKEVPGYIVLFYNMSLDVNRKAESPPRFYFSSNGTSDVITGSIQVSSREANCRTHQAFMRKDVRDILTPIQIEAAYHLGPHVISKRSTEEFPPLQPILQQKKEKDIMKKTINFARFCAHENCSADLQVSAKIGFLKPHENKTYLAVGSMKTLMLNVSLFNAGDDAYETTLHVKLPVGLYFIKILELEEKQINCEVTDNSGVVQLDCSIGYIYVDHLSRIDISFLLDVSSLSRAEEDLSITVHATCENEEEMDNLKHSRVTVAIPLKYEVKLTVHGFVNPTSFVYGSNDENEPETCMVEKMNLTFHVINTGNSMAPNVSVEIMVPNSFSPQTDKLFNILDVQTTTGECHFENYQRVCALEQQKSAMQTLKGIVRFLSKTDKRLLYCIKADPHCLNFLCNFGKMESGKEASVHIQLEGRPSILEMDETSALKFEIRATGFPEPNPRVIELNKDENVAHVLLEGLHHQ
Chain of integrin a4b7 (P26010 20-723): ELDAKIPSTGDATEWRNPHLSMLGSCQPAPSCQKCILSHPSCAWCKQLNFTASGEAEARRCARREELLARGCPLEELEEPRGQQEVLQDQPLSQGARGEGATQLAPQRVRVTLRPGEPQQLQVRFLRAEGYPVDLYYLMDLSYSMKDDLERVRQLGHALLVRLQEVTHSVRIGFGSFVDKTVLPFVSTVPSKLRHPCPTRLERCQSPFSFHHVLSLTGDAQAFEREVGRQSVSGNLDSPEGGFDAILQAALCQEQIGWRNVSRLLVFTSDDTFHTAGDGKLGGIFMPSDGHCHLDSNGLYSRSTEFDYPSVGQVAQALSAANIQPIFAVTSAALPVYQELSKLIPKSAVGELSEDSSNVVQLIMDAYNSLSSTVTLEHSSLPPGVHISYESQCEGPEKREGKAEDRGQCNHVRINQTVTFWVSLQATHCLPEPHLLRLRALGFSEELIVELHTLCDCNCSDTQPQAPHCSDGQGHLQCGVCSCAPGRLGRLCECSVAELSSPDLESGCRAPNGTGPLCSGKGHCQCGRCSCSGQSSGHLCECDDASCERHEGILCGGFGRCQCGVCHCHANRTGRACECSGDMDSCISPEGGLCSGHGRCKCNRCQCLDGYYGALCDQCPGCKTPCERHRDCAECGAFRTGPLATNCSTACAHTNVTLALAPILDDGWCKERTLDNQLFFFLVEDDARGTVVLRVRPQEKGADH

COCCOCCOCCOCCOCCOCCOCCOCCOCCOCCOCCOCCOCCOCCOCCOCCOCCOCCOCCOCCOCCOCCOCCOCCOCc1cc(OC)c(-c2ccc(C[C@H](NC(=O)c3c(Cl)cc(C(=O)O)cc3Cl)C(=O)O)cc2)c(OC)c1 [Example C17, (S)-4-((1-carboxy-2-(2′,6′-dimethoxy-4′-(2,5,8,11,14,17,20,23,26,29,32,35,38,41,44,47,50,53,56,59,62,65,68,71,74-pentacosaoxapentaheptacontyl)-[1,1′-biphenyl]-4-yl)ethyl)carbamoyl)-3,5-dichlorobenzoic acid]
IC50 (VLA-4 (a4b1); as listed in TABLE 10, read-out: sVCAM IC50): 1.49 nM
IC50 (VLA-4 (a4b1); [2]): 1.49 nM
IC50 (VLA-4 (a4b1); as listed in TABLE 17, read-out: sVCAM IC50): 1.49 nM
IC50 (VLA-4 (a4b1); [3]): 1.49 nM
IC50 (integrin a4b7): 1.5 nM
HSPC mobilization in the triple combination regimen with plerixafor and truncated Groβ [1]: does not extend mobilization out to 6 hours
time to which HSPC mobilization is extended after a single dose [1]: ≤ 2 h
No. CFU (×10^3)/mL ± SD, 2 hr ([1]; alone or in combination with Plerixafor and tGroβ, peripheral blood, 2 hr (TABLE 17)): 4.77 ± 1.21 (×10^3)/mL
No. CFU (×10^3)/mL ± SD, 4 hr ([1]; alone or in combination with Plerixafor and tGroβ, peripheral blood, 4 hr (TABLE 17)): 0.81 ± 0.26 (×10^3)/mL
No. CFU (×10^3)/mL ± SD, 6 hr ([1]; alone or in combination with Plerixafor and tGroβ, peripheral blood, 6 hr (TABLE 17)): 0.26 ± 0.13 (×10^3)/mL
HSPC mobilization, result in words ([1]; single dose): returning to baseline by 4 hours and no mobilization at 6 hours; also recorded: does not extend mobilization; also recorded: do not provide for extended mobilization
No. CFU (×10^3)/mL ± SD, 2 hr ([1]; single dose, peripheral blood, 2 hr post dose (TABLE 10)): 3.67 ± 1.09 (×10^3)/mL
No. CFU (×10^3)/mL ± SD, 4 hr ([1]; single dose, peripheral blood, 4 hr post dose (TABLE 10)): 0.57 ± 0.21 (×10^3)/mL
No. CFU (×10^3)/mL ± SD, 6 hr ([1]; single dose, peripheral blood, 6 hr post dose (TABLE 10)): 0.28 ± 0.17 (×10^3)/mL
No. CFU (x10^3)/mL ± SD, 2 hr ([1]; peripheral blood): 4.32 ± 1.23 (x10^3)/mL
No. CFU (x10^3)/mL ± SD, 4 hr ([1]; peripheral blood): 1.21 ± 0.40 (x10^3)/mL
No. CFU (x10^3)/mL ± SD, 6 hr ([1]; peripheral blood): 0.26 ± 0.07 (x10^3)/mL
No. CFU (x10^3)/mL ± SD, 8 hr ([1]; peripheral blood): 0.19 ± 0.09 (x10^3)/mL

COc1cccc(OC)c1-c1ccc(C[C@H](CC(=O)c2c(Cl)cc(C(=O)O)cc2Cl)C(=O)O)cc1 [Example C1]
IC50 (VLA-4 (a4b1); as listed in TABLE 5, read-out: sVCAM IC50): 4.9 nM
IC50 (VLA-4 (a4b1); as listed in TABLE 7, read-out: sVCAM IC50): 4.9 nM
IC50 (VLA-4 (a4b1); [2]): 4.9 nM
IC50 (VLA-4 (a4b1); as listed in TABLE 20, read-out: sVCAM IC50): 4.9 nM
IC50 (VLA-4 (a4b1); [3]): 4.98 nM
IC50 (integrin a4b7): 1.1 nM
time to which HSPC mobilization is extended after a single dose [1]: ≤ 2 h
HSPC mobilization, result in words ([1]; single dose): have returned to baseline
No. CFU (×10^3)/mL ± SD, 0.5 hr ([1]; single dose, peripheral blood, 0.5 hr post dose (TABLE 7)): 0.96 ± 0.33 (×10^3)/mL
No. CFU (×10^3)/mL ± SD, 1 hr ([1]; single dose, peripheral blood, 1 hr post dose (TABLE 20)): 2.16 ± 1.22 (×10^3)/mL
No. CFU (×10^3)/mL ± SD, 2 hr ([1]; single dose, peripheral blood, 2 hr post dose (TABLE 7)): 0.33 ± 0.14 (×10^3)/mL
No. CFU (×10^3)/mL ± SD, 4 hr ([1]; single dose, peripheral blood, 4 hr post dose (TABLE 7)): 0.08 ± 0.04 (×10^3)/mL
No. CFU (×10^3)/mL ± SD, 4 hr ([1]; single dose, peripheral blood, 4 hr post dose (TABLE 20)): 0.26 ± 0.18 (×10^3)/mL
No. CFU (×10^3)/mL ± SD, 8 hr ([1]; single dose, peripheral blood, 8 hr post dose (TABLE 20)): 0.13 ± 0.10 (×10^3)/mL
HSPC mobilization, result in words ([1]; single dose, listed as Comparator Compound 1): returned to baseline by 4 hours
No. CFU (x10^3)/mL ± SD, 2 hr ([1]; peripheral blood): 0.67 ± 0.12 (x10^3)/mL
No. CFU (x10^3)/mL ± SD, 4 hr ([1]; peripheral blood): 0.42 ± 0.14 (x10^3)/mL
No. CFU (x10^3)/mL ± SD, 6 hr ([1]; peripheral blood): 0.26 ± 0.07 (x10^3)/mL
No. CFU (x10^3)/mL ± SD, 8 hr ([1]; peripheral blood): 0.22 ± 0.02 (x10^3)/mL
No. CFU (×10^3)/mL ± SD, 0.25 hr ([1]; single s.c. injection, peripheral blood, 0.25 hr post dose (TABLE 5)): 3.98 ± 1.09 (×10^3)/mL
No. CFU (×10^3)/mL ± SD, 2 hr ([1]; single s.c. injection, peripheral blood, 2 hr post dose (TABLE 5)): 0.86 ± 0.25 (×10^3)/mL
No. CFU (×10^3)/mL ± SD, 4 hr ([1]; single s.c. injection, peripheral blood, 4 hr post dose (TABLE 5)): 0.27 ± 0.20 (×10^3)/mL
